In the test the test system is M. tuberculosis H37Rv growth inhibition, 7H9 media. Put plainly: M. tuberculosis growth inhibition, HTS (AID 449762).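 For all read-outs here: bacterial growth assessed after seven days of incubation.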 Conditions: for IC90: measured here: IC90 growth inhibition.

Results filed as inconclusive are left out.

Take `Cc1nn(CCc2nn[nH]n2)c2nc(-c3ccc(Br)cc3)cc(C(F)(F)F)c12`: the IC50 is 4.64 µM and the IC90 came out at 10.8 µM.

`Cc1ncsc1CCOC(=O)c1ccc([N+](=O)[O-])cc1`: the IC50 is 8.11 µM and the 90% effect concentration (IC90) is over 100 µM.

`O=[N+]([O-])c1ccc(S(=O)(=O)c2ccccc2)nc1`: the IC50 was 1.01 µM and the IC90 was determined as 2.08 µM.

On to `O=c1c(-c2cnn(-c3ccccc3)c2)coc2cc(O)ccc12`, for which the IC50 was 12.1 µM and the 90% effect concentration (IC90) is over 100 µM.

In the case of `COc1ccc(C(=O)/C=C/Sc2nc3ccccc3o2)cc1`, the IC50 was 37.8 µM and the 90% effect concentration (IC90) is over 100 µM.

For the compound `CCO[C@H]1OC(C(=O)NCc2nc3ccccc3[nH]2)=C[C@@H](c2csc3ccccc23)[C@@H]1CCCO`, the IC50 was 44.8 µM and the IC90 was found to be 50.5 µM.

In the case of `CCN(Cc1ccccc1)c1ccc(/C=N/N=C(N)N)cc1`, the concentration for half-maximal inhibition (IC50) was 17.1 µM and the 90% effect concentration (IC90) was determined as 30.1 µM.

With `CC(C)CNC(=S)NC(=O)c1csc([N+](=O)[O-])c1`, the IC50 was 6.74 µM and the IC90 came to 15.1 µM.

`CCNc1nc(Nc2ccc(C)c(Cl)c2)c2cnn(C)c2n1`: the IC50 was 43.3 µM and the IC90 is over 100 µM.

With `Cc1ccc(N2CCN(C(=O)c3cn(CC4CCCCC4)nn3)C(C)C2)cc1` (stereo not drawn), the IC50 was 4.1 µM and the concentration for an effect of 90% (IC90) was determined as 12.4 µM.

In the case of `CCCCCCCCCCCCCCCC[N+](C)(C)CC`, the IC50 was 30.3 µM and the IC90 was determined as 43 µM.

For the compound `NC(=O)c1ccc(N=Cc2ccc([N+](=O)[O-])s2)cc1`, the half-inhibitory concentration (IC50) was 12.6 µM and the IC90 is 13.6 µM.

For `CC1CC2=C(CC1/C=N/NC(N)=S)C(C)(C)CCC2` (stereo not drawn), the IC50 is 14.4 µM and the IC90 amounted to 24.6 µM.

For the compound `CC(C)=N/N=C1/NC(=O)C(Cc2ccccc2)S1` (stereo not drawn), the half-inhibitory concentration (IC50) is 23.4 µM and the concentration for an effect of 90% (IC90) stood at 25.9 µM.

As to `C=C(C)C1CC=C(CN2CCN(Cc3ccccc3)CC2)CC1` (stereo not drawn), the concentration for half-maximal inhibition (IC50) was 15.7 µM and the concentration for an effect of 90% (IC90) amounted to 25.9 µM.

In the case of `CCOc1cc2c(cc1OCC)-n1cccc1C(c1ccc(C(C)C)cc1)NC2` (stereo not drawn), the IC50 was 20.6 µM and the concentration for an effect of 90% (IC90) came out at 29.6 µM.

Regarding `CCn1c(SCC(=O)OC2CCCCC2)nc2ccccc2c1=O`, the IC50 is 21.7 µM and the 90% effect concentration (IC90) stood at 37.7 µM.

In the case of `c1ccc(/N=C2\N=C(Nc3ccccn3)c3ccccc32)nc1`, the IC50 was 1.08 µM and the IC90 amounted to 1.91 µM.

`CCOC(=O)C(C)Oc1ccc(NC(=O)C(Cl)(Cl)Cl)cc1` (stereo not drawn): the IC50 is 2.38 µM and the 90% effect concentration (IC90) turned out to be 5.08 µM.

With `CNC(=O)COC(=O)c1ccc(-c2nc3ccccc3s2)s1`, the half-maximal inhibitory concentration (IC50) is 2.07 µM and the IC90 was determined as 23 µM.

Take `CNc1nc(SCc2ccccc2Cl)nc2c1CCCC2`: the IC50 is 0.73 µM and the IC90 amounted to 2.52 µM.

For the compound `CCN(CC)CCNC(=O)c1ccc(NC(=O)c2cn(-c3ccccc3)nc2-c2cccs2)cc1`, the half-maximal inhibitory concentration (IC50) is 19 µM and the IC90 came out at 27.1 µM.

On to `COc1cc(/C=C/C(=O)c2c(O)n(CCc3ccccc3)c(=O)[nH]c2=O)ccc1O`, for which the IC50 was 4.59 µM and the IC90 turned out to be 11.5 µM.

Turning to `COc1ccc(C(=O)C2CCCN(C3CSCCSC3)C2)c(C)c1` (stereo not drawn), the IC50 is 23.1 µM and the IC90 was 26.4 µM.

Consider `CCOC(=O)C1CCN(c2nc3cc(OC)ccc3cc2C#N)CC1`, for which the IC50 is 52.7 µM and the concentration for an effect of 90% (IC90) is over 100 µM.

With `CC1C/C(=C\c2cccnc2)C(=O)/C(=C/c2cccnc2)C1` (stereo not drawn), the half-maximal inhibitory concentration (IC50) was 3.38 µM and the IC90 turned out to be 8.85 µM.

Regarding `O=C(Sc1nnc(-c2ccccc2)o1)N1c2ccccc2Sc2ccccc21`, the IC90 is over 100 µM.

Take `CC(/C=N/NC(=O)c1cc(-c2ccc3ccccc3c2)n[nH]1)=C\c1ccco1`: the IC50 was 29 µM and the IC90 was 51.2 µM.

For `COc1ccc2cc1Oc1ccc(cc1)C[C@H]1c3c(cc(OC)c4c3Oc3c(ccc5c3[C@H](C2)N(C)CC5)O4)CCN1C`, the IC50 was 4.9 µM and the IC90 is 6.44 µM.

Regarding `CCCCn1c(O)c(/C=C2/C=CC=N2)c(=O)[nH]c1=O`, the concentration for half-maximal inhibition (IC50) was 6.55 µM and the concentration for an effect of 90% (IC90) worked out at 17.1 µM.

For the compound `CCc1ccc2nc(N3C(=O)C(O)=C(C(=O)c4ccco4)C3c3cccs3)sc2c1` (stereo not drawn), the IC50 was 83.2 µM and the IC90 was 92.3 µM.

In the case of `C/C(=N\NC(=S)NCC(C)(C)C)c1cc(F)cc(F)c1O`, the IC50 is 1.22 µM and the IC90 stood at 8.86 µM.

As for `O=[N+]([O-])c1ccc(N2CCCCC2)s1`, the concentration for half-maximal inhibition (IC50) is 7.61 µM and the IC90 is 17.9 µM.

As for `C(=N\Nc1ncnc2sc3c(c12)CCC3)/c1cccs1`, the concentration for half-maximal inhibition (IC50) is 5.84 µM and the concentration for an effect of 90% (IC90) was determined as 16.8 µM.

Regarding `CCN(CC)S(=O)(=O)c1ccc(/C=C/C(=O)OCC#N)cc1`, the half-inhibitory concentration (IC50) is 6.59 µM and the IC90 is 39.6 µM.

Regarding `Cc1ccccc1Cn1cc(NC(=O)c2noc(C(C)C)c2[N+](=O)[O-])cn1`, the IC50 was 5.11 µM and the concentration for an effect of 90% (IC90) amounted to 8.72 µM.

For `CCOC(=O)c1nn(-c2ccc(C)c(C)c2)cc1O`, the half-inhibitory concentration (IC50) was 27.1 µM and the IC90 was over 100 µM.

Consider `COc1ccc(-c2c(C#N)c(SCC(=O)c3cc4ccccc4oc3=O)nc(C)c2C(=O)Nc2ccccc2)cc1`, for which the IC50 was 45.9 µM and the IC90 turned out to be 75.6 µM.

Regarding `Cc1nn(-c2ccccc2)c(N)c1C(c1ccc(C(C)C)cc1)c1c(C)nn(-c2ccccc2)c1N`, the half-inhibitory concentration (IC50) is 20.4 µM and the IC90 came to 27.1 µM.

Regarding `Cc1ccc2[nH]c(C(=O)NN=C3CCCCC3)c(-c3ccccc3)c2c1`, the IC50 is 29 µM and the IC90 came to 56.6 µM.

In the case of `COc1cccc(C(=O)NC2CC3CCCC(C2)N3CC(=O)Nc2ccc(N(C)C)cc2)c1` (stereo not drawn), the 50% inhibitory concentration (IC50) is 19.7 µM and the IC90 is 24.8 µM.

With `O=C1C(c2ccccc2)=[N+]([O-])c2ccccc21`, the IC50 was 95.8 µM and the IC90 is over 100 µM.

With `Cc1cc(C)c2cc(C(=O)Nc3ccc(C)c(F)c3)[nH]c2c1`, the concentration for half-maximal inhibition (IC50) was 0.94 µM and the IC90 was 1.69 µM.

In the case of `O=C(/C=C/c1cn(-c2ccccc2)nc1-c1cccnc1)c1ccco1`, the half-inhibitory concentration (IC50) was 14.8 µM and the concentration for an effect of 90% (IC90) turned out to be 46.6 µM.

As to `O=C(NC(=S)N1CCc2ccccc21)c1ccc(Br)o1`, the IC50 is 5.63 µM and the IC90 was found to be 9.62 µM.

Regarding `CC(C)(C)OC(=O)NNc1c2ccccc2nc2ccccc12`, the IC50 was 22.8 µM and the IC90 is 25.7 µM.

On to `Cc1ccc2[nH]c(C)c(CCNC(=O)c3cc4cc([N+](=O)[O-])ccc4oc3=O)c2c1`, for which the half-inhibitory concentration (IC50) was 8.49 µM and the 90% effect concentration (IC90) worked out at 16.5 µM.

As for `CCOC(=O)c1ccc(NC(=S)NCCc2ccc(F)cc2)cc1`, the IC50 is 42.4 µM and the concentration for an effect of 90% (IC90) is over 100 µM.

With `COC(=O)CN1C(c2ccc(Cl)cc2)=Nc2ccc(Cl)cc2C1c1ccccc1` (stereo not drawn), the IC50 was 11.8 µM and the IC90 was 13.7 µM.

In the case of `COc1cc2cc(C(c3nnnn3C(C)(C)C)N3CCc4ccccc43)c(=O)[nH]c2cc1OC` (stereo not drawn), the IC50 was 97.4 µM and the IC90 is over 100 µM.

As for `CC(=O)n1cc(/C=C2/N=C(c3ccccc3)OC2=O)c2ccccc21`, the IC50 was 30.7 µM and the IC90 stood at 75.5 µM.

As for `CCOC(=O)COc1ccc(S(=O)(=O)NCCC2=CCCCC2)cc1`, the IC50 was 13.6 µM and the 90% effect concentration (IC90) turned out to be 27.6 µM.

For the compound `c1ccc2sc(Sc3ncnc4sccc34)nc2c1`, the IC50 was 3.36 µM and the IC90 is 6.95 µM.

Turning to `COc1ccc(C[C@H]2CN3C(=NC[C@H]3Cc3ccccc3)N2CCNC(=O)CCC2CCCCC2)cc1`, the half-maximal inhibitory concentration (IC50) is 16.8 µM and the IC90 was found to be 21.3 µM.

Regarding `CCN(CC)CCN(C(=O)c1ccc(S(=O)(=O)N2CCCC2)cc1)c1nc2cc(C)cc(C)c2s1`, the IC50 is 10.1 µM and the IC90 was determined as 13.2 µM.

Take `Cc1c(C(=O)N(C)C)sc2nc(-c3ccccn3)[nH]c(=O)c12`: the half-maximal inhibitory concentration (IC50) is 5.89 µM and the concentration for an effect of 90% (IC90) worked out at 16.9 µM.

Take `CCN(CC)c1nc(NN)nc(Nc2ccc(C)c(Cl)c2)n1`: the IC50 is 2.85 µM and the IC90 was 6.27 µM.

In the case of `CCCc1ccc(C2=Nn3c(nnc3C(C)C)SC2)cc1`, the 50% inhibitory concentration (IC50) was 18.7 µM and the concentration for an effect of 90% (IC90) was determined as 29.7 µM.

For `c1ccc(Cn2nnc3c(N4CCc5ccccc5C4)ncnc32)cc1`, the half-inhibitory concentration (IC50) is 19.7 µM and the IC90 is 72.8 µM.

Regarding `CC[n+]1c(/C=C/N(C)c2ccccc2)n(-c2ccccc2)c2ccc(-c3nc4ccccc4s3)cc21`, the half-inhibitory concentration (IC50) was 0.87 µM and the 90% effect concentration (IC90) was 1.27 µM.

For `CCOC(=O)CSc1nc(C)c(C(=O)OCC)s1`, the IC50 is 3.62 µM and the IC90 was 9.29 µM.

`CCN(Cc1ccncc1)Cc1nc(-c2ccc(C(=O)OC)cc2)no1`: the IC50 is 15.3 µM and the IC90 turned out to be 41.6 µM.

Consider `CC(=O)c1ccc(-n2cc(-c3ccc(C(C)(C)C)cc3)[n+]3c2SCCC3)cc1`, for which the IC50 is 4.34 µM and the IC90 was found to be 29.5 µM.

For the compound `Nc1c(C(=O)O)cnc2c(-c3ccc(Cl)cc3)cnn12`, the IC50 is 25.5 µM and the IC90 amounted to 55.6 µM.

With `COC(=O)C(C)Oc1ccc(-c2nccc(-c3ccccn3)n2)cc1` (stereo not drawn), the 50% inhibitory concentration (IC50) is 1.73 µM and the IC90 was 4.04 µM.

On to `CC(=O)n1cc(N(C(=O)CCl)c2ccc(Cl)cc2)c2ccccc21`, for which the half-inhibitory concentration (IC50) was 1.82 µM and the IC90 was found to be 3.99 µM.

`O=C(CCl)Nc1cccn2ncnc12`: the IC50 was 1.38 µM and the IC90 worked out at 2.89 µM.

As for `Cc1cccc(/C=C2/S/C(=N/N=C3\CC4CCC3(C)C4(C)C)NC2=O)c1` (stereo not drawn), the 50% inhibitory concentration (IC50) is 7.92 µM and the IC90 was over 100 µM.

In the case of `O=S1(=O)N(CCN2CC=C(c3c[nH]c4cc(F)ccc34)CC2)c2cccc3c2N1CCC3`, the IC50 is 11.1 µM and the IC90 was 11.7 µM.

For the compound `Cc1ccc(S(=O)(=O)N(C)c2ccc(OCC(=O)OCc3ccc(C#N)cc3)cc2)cc1`, the concentration for half-maximal inhibition (IC50) is 8.71 µM and the concentration for an effect of 90% (IC90) stood at 13.8 µM.

Consider `Ic1ccccc1CN[C@@H]1C2CCN(CC2)[C@@H]1C(c1ccccc1)c1ccccc1`, for which the 50% inhibitory concentration (IC50) is 29.5 µM and the 90% effect concentration (IC90) was 38.4 µM.

In the case of `Cc1ccnc(NC(=O)c2cc3ccccc3o2)c1`, the 50% inhibitory concentration (IC50) was 43.9 µM and the IC90 was over 100 µM.
